The target of the assay is hCereblon(M1-L442)_hDDB1(M1-H1140) (Homo sapiens (Human), UniProt Q96SW2). Put plainly: Fluorescence direct binding protocol (tryptophan fluorescence titration). As to conditions: 20° C., excited at 280 nm, recorded at 340 nm, assay buffer 50 mM Hepes 7.4 200 mM NaCl; read-out: Fluorescence h-Cereblon_DDB1 Mean Kd_EQ. On the procedure:
Fluorescence Direct Binding Protocol
Determination of the affinities of compounds to protein containing one or more tryptophan is measurable by monitoring the fluorescence emission in direct mode. The measurements depending on the protein available amounts are performed either manually in a cuvette on ISS-PC1 photon counting spectrofluorometer or automatically in well plates on a fluorescence plate reader device. Fluorescence titrations are performed at 20° C. in the chosen binding assay buffer by using a defined constant protein concentration against ligand concentration variations. Small aliquots of known ligand concentration solubilized in DMSO were added and the fluorescence, excited at 280 nm, was recorded at 340 nm. The fluorescence intensity was corrected for protein dilution and for the filter effect (Birdsall et al.^72).
1) Optimization of measurement parameters to minimize protein consumption and to minimize the dilution effect and the DMSO content
2) Titration measurements of the protein against ligand by at least 12 titration steps to obtain a good s-curve fit
3) Repeat the same titration measurements with the ligand alone to enable correction
4) Check the stability of the protein once by titration against DMSO alone
5) Determination of the molar extinction coefficients of the ligand at 280 and 340 nm with help of an UV-spectrophotometer
6) Use Excel template for the correction of the measured raw data
7) Use GraphPad Prism software for the quadratic binding fit and the KD evaluation.

SMILES strings stand for the structures.

Sequence of hCereblon(M1-L442)_hDDB1(M1-H1140) (Q96SW2 whole entry): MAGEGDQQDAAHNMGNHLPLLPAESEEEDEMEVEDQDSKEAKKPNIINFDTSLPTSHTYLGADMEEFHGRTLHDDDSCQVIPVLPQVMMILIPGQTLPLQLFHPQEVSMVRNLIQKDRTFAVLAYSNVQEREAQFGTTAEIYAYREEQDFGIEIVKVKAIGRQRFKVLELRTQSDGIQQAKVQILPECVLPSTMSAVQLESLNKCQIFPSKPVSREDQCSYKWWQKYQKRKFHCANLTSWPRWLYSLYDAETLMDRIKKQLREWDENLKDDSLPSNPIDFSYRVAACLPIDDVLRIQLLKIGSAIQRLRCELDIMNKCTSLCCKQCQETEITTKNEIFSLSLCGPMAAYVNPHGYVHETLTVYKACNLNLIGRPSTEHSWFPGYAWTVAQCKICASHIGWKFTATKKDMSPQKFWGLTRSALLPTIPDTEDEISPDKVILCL
Sequence of hCereblon(M1-L442)_hDDB1(M1-H1140) (Q16531 whole entry partner): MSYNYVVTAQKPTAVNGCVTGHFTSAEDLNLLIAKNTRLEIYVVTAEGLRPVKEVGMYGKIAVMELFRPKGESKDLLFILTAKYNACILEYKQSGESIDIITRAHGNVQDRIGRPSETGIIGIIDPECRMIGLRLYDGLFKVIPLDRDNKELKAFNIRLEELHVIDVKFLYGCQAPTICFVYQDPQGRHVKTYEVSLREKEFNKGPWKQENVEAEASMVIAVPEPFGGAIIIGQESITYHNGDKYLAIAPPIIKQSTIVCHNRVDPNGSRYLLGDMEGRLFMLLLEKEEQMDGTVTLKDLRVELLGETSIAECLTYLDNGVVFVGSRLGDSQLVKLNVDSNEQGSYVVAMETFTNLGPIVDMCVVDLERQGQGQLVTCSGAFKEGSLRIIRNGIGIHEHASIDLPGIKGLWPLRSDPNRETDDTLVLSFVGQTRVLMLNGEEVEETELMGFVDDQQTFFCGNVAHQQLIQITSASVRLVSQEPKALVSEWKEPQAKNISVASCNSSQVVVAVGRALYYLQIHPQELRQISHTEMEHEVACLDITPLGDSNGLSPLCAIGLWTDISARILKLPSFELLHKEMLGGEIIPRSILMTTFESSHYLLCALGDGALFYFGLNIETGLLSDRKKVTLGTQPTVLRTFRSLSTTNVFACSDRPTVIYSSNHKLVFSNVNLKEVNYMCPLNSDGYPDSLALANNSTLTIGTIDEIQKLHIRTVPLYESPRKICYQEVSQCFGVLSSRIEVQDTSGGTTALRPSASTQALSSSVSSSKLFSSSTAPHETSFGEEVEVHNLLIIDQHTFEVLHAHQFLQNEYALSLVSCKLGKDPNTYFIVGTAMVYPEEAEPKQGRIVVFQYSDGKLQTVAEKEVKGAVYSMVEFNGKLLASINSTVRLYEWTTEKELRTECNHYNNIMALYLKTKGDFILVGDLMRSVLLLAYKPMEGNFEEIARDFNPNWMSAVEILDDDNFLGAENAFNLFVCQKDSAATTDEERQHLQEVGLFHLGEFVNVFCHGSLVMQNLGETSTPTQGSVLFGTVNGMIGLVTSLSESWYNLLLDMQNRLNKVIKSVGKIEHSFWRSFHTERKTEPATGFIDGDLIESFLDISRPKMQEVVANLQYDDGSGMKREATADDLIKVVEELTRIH

On to `O=C1CC[C@@H](NC(=O)C2CCc3cccnc32)C(=O)N1` (mixture of isomers) [Example 22], for which the Kd was under 0.001 µM.
Under `O=C1CCC(NC(=O)C2CCc3ccccc32)C(=O)N1` (racemic) [Example 2, N-(2,6-Dioxopiperidin-3-yl)-2,3-dihydro-1H-indene-1-carboxamide] stands 0.655 µM.
Under `CN1C(=O)CCC(NC(=O)[C@H]2CCCc3ccccc32)C1=O` (single isomer, unassigned) [Example 74] stands 0.005 µM; under `CN1C(=O)CCC(NC(=O)[C@H]2CCCc3ccccc32)C1=O` (single isomer, unassigned) [Example 75], 0.046 µM; under `O=C1CCC(NC(=O)C2CCc3ccccc32)C(=O)N1` (single isomer, unassigned; (+)) [Example 5, (+)-N-(2,6-Dioxopiperidin-3-yl)-2,3-dihydro-1H-indene-1-carboxamide], 0.197 µM.
Under `O=C1CCC(NC(=O)C2CCc3ccccc32)C(=O)N1` (single isomer, unassigned; (-)) [Example 4, (−)-N-(2,6-Dioxopiperidin-3-yl)-2,3-dihydro-1H-indene-1-carboxamide] stands 0.068 µM; under `O=C1CC[C@H](NC(=O)Cc2ccccc2)C(=O)N1` [Example 1, (S)-N-(2,6-Dioxo-3-piperidinyl)benzeneacetamide], 0.027 µM.
For the compound `CCCN1Cc2ccccc2C1C(=O)NC1CCC(=O)NC1=O` (stereo not drawn) [Example 3, N-(2,6-Dioxopiperidin-3-yl)-2-propylisoindoline-1-carboxamide], the Kd was determined as 0.057 µM.
Under `O=C1CCC(NC(=O)C2CCc3ccccc32)C(=O)N1` (stereo not drawn) [Example 6, N-(2,6-Dioxopiperidin-3-yl)-2,3-dihydro-1H-indene-1-carboxamide] stands 0.146 µM; under `O=C1CCC(NC(=O)c2c[nH]c3ccccc23)C(=O)N1` (stereo not drawn) [Example 7, N-(2,6-Dioxopiperidin-3-yl)-1H-indole-3-carboxamide], 0.028 µM; under `Cn1cc(C(=O)NC2CCC(=O)NC2=O)c2ccccc21` (stereo not drawn) [Example 8, N-(2,6-Dioxopiperidin-3-yl)-1-methyl-1H-indole-3-carboxamide], 0.03 µM.
On to `O=C1CCC(NC(=O)N2CCc3ccccc32)C(=O)N1` (stereo not drawn) [Example 9, N-(2,6-Dioxopiperidin-3-yl)indoline-1-carboxamide], for which the Kd was 0.002 µM.
The same measure for `O=C1CCC(NC(=O)C2CCCC2)C(=O)N1` (stereo not drawn) [Example 11, N-(2,6-Dioxopiperidin-3-yl)cyclopentanecarboxamide]: 0.012 µM; for `O=C1CCC(NC(=O)c2coc3ccccc23)C(=O)N1` (stereo not drawn) [Example 12, N-(2,6-Dioxopiperidin-3-yl)benzofuran-3-carboxamide]: 0.002 µM; for `O=C1CCC(NC(=O)c2csc3ccccc23)C(=O)N1` (stereo not drawn) [Example 13, N-(2,6-Dioxopiperidin-3-yl)benzo[b]thiophene-3-carboxamide]: 0.008 µM.
For `O=C1CCC(NC(=O)[C@@H]2CCCc3ccccc32)C(=O)N1` (stereo partly drawn) [Example 14, (1R)-N-(2,6-Dioxopiperidin-3-yl)-1,2,3,4-tetrahydronaphthalene-1-carboxamide], the Kd was found to be 0.004 µM.
For the compound `O=C1CCC(NC(=O)[C@H]2CCCc3ccccc32)C(=O)N1` (stereo partly drawn) [Example 15, (1S)-N-(2,6-Dioxopiperidin-3-yl)-1,2,3,4-tetrahydronaphthalene-1-carboxamide], the Kd is under 0.001 µM.
Under `CN(C(=O)c1c[nH]c2ccccc12)C1CCC(=O)NC1=O` (stereo not drawn) [Example 16, N-(2,6-Dioxopiperidin-3-yl)-N-methyl-1H-indole-3-carboxamide] stands 0.003 µM; under `O=C1CC[C@H](NC(=O)c2c[nH]c3ccccc23)C(=O)N1` [Example 17, (S)-N-(2,6-Dioxopiperidin-3-yl)-1H-indole-3-carboxamide], 0.014 µM.
As for `O=C1CC[C@@H](NC(=O)c2c[nH]c3ccccc23)C(=O)N1` [Example 18, (R)-N-(2,6-Dioxopiperidin-3-yl)-1H-indole-3-carboxamide], the Kd is 0.014 µM.
The same measure for `O=C1CC[C@H](NC(=O)C2CCc3ncccc32)C(=O)N1` (stereo partly drawn) [Example 19, N-((S)-2,6-Dioxopiperidin-3-yl)-6,7-dihydro-5H-cyclopenta[b]pyridine-5-carboxamide]: 0.001 µM; for `O=C1CC[C@@H](NC(=O)C2CCc3ncccc32)C(=O)N1` (stereo partly drawn) [Example 20, N-((R)-2,6-Dioxopiperidin-3-yl)-6,7-dihydro-5H-cyclopenta[b]pyridine-5-carboxamide]: 0.003 µM.
Under `O=C1CC[C@H](NC(=O)c2coc3ccccc23)C(=O)N1` [Example 21, (S)-N-(2,6-Dioxopiperidin-3-yl)benzofuran-3-carboxamide] stands 0.001 µM; under `O=C1CC[C@H](NC(=O)C2CCc3cccnc32)C(=O)N1` (stereo partly drawn) [Example 23, N-((S)-2,6-Dioxopiperidin-3-yl)-6,7-dihydro-5H-cyclopenta[b]pyridine-7-carboxamide], 0.025 µM; under `O=C1CC[C@@H](NC(=O)c2csc3ccccc23)C(=O)N1` [Example 24, (R)-N-(2,6-Dioxopiperidin-3-yl)benzo[b]thiophene-3-carboxamide], 0.009 µM.
Under `O=C1CC[C@H](NC(=O)c2csc3ccccc23)C(=O)N1` [Example 25, (S)-N-(2,6-Dioxopiperidin-3-yl)benzo[b]thiophene-3-carboxamide] stands 0.023 µM.
On to `O=C1CC[C@@H](NC(=O)[C@H]2CCCc3ccccc32)C(=O)N1` [Example 26, (S)-N-((R)-2,6-Dioxopiperidin-3-yl)-1,2,3,4-tetrahydronaphthalene-1-carboxamide], for which the Kd amounted to 0.006 µM.
Under `O=C1CC[C@H](NC(=O)[C@H]2CCCc3ccccc32)C(=O)N1` [Example 27, (S)-N-((S)-2,6-Dioxopiperidin-3-yl)-1,2,3,4-tetrahydronaphthalene-1-carboxamide] stands 0.003 µM.
For the compound `O=C1CC[C@H](NC(=O)N2CCCc3ccccc32)C(=O)N1` [Example 28, (S)-N-(2,6-Dioxopiperidin-3-yl)-3,4-dihydroquinoline-1(2H)-carboxamide], the Kd is 0.004 µM.
Under `O=C1CC[C@H](NC(=O)N2CCc3cccnc32)C(=O)N1` [Example 29, (S)-N-(2,6-Dioxopiperidin-3-yl)-2,3-dihydro-1H-pyrrolo[2,3-b]pyridine-1-carboxamide] stands under 0.001 µM; under `O=C1CC[C@H](NC(=O)N2CCCc3cccnc32)C(=O)N1` [Example 30, (S)-N-(2,6-Dioxopiperidin-3-yl)-3,4-dihydro-1,8-naphthyridine-1 (2H)-carboxamide], 0.004 µM.
Under `O=C1CC[C@H](NC(=O)C2CCOc3ccccc32)C(=O)N1` (stereo partly drawn) [Example 31, N-[(3S)-2,6-Dioxo-3-piperidyl]chromane-4-carboxamide] stands 0.005 µM; under `O=C1CC[C@H](NC(=O)[C@H]2CCNc3ccccc32)C(=O)N1` [Example 32, (4S)-N-[(3S)-2,6-Dioxopiperidin-3-yl]-1,2,3,4-tetrahydroquinoline-4-carboxamide], under 0.001 µM.
Turning to `O=C1CC[C@H](NC(=O)[C@@H]2CCNc3ccccc32)C(=O)N1` [Example 33, (4R)-N-[(3S)-2,6-Dioxopiperidin-3-yl]-1,2,3,4-tetrahydroquinoline-4-carboxamide], the Kd came out at 0.006 µM.
Consider `O=C1CC[C@@H](NC(=O)c2coc3ccccc23)C(=O)N1` [Example 34, (R)-N-(2,6-Dioxopiperidin-3-yl)benzofuran-3-carboxamide], for which the Kd was found to be 0.026 µM.
The same measure for `O=C1CC[C@@H](NC(=O)N2CCCc3ccccc32)C(=O)N1` [Example 35, (R)-N-(2,6-Dioxopiperidin-3-yl)-3,4-dihydroquinoline-1(2H)-carboxamide]: 0.019 µM.
The same measure for `O=C1CC[C@@H](NC(=O)N2CCc3cccnc32)C(=O)N1` [Example 36, (R)-N-(2,6-Dioxopiperidin-3-yl)-2,3-dihydro-1H-pyrrolo[2,3-b]pyridine-1-carboxamide]: 0.01 µM; for `O=C1CC[C@H](NC(=O)C2CCNc3ccccc32)C(=O)N1` (stereo partly drawn) [Example 37, N-[(3S)-2,6-Dioxo-3-piperidyl]-1,2,3,4-tetrahydroquinoline-4-carboxamide]: under 0.001 µM; for `CN1CCC(C(=O)N[C@H]2CCC(=O)NC2=O)c2ccccc21` (stereo partly drawn) [Example 38, N-[(3S)-2,6-Dioxo-3-piperidyl]-1-methyl-3,4-dihydro-2H-quinoline-4-carboxamide]: 0.005 µM.
The same measure for `O=C1CC[C@@H](NC(=O)C2CCNc3ccccc32)C(=O)N1` (stereo partly drawn) [Example 39, N-[(3R)-2,6-Dioxo-3-piperidyl]-1,2,3,4-tetrahydroquinoline-4-carboxamide]: 0.019 µM; for `CN1CCC(C(=O)N[C@@H]2CCC(=O)NC2=O)c2ccccc21` (stereo partly drawn) [Example 40, N-[(3R)-2,6-Dioxo-3-piperidyl]-1-methyl-3,4-dihydro-2H-quinoline-4-carboxamide]: 0.068 µM.
As to `O=C1CC[C@@H](NC(=O)C2CCOc3ccccc32)C(=O)N1` (stereo partly drawn) [Example 41, N-[(3R)-2,6-Dioxo-3-piperidyl]chromane-4-carboxamide], the Kd was 0.014 µM.
